Measurements taken from US9340590B2 (priority 2011, dated 2016).
Like-named read-outs stand apart in the source and are kept apart here. Positions of bridges follow the written chain, without caps; N, C: chain ends. Non-standard residues stand in square brackets, D forms with d. Residues, ends and D or L forms follow the SMILES beside them. Lys(Me2) = CN(C)CCCC[C@H](N)C(=O)O

What was measured:
hNav1.7 = hNav1.7 (Homo sapiens, UniProt Q15858); test: cell-based; assay type: cell-based
hNav1.3 = hNav1.3 (Homo sapiens, UniProt Q9NY46); test: cell-based; conditions: for IC50: IonWorks Quattro, read-out: IWQ Use Nav1.3
[1] = IonWorks Quattro, Use, read-out: IWQ Use Nav1.7

Chain of hNav1.7 (Q15858 whole entry, looked up): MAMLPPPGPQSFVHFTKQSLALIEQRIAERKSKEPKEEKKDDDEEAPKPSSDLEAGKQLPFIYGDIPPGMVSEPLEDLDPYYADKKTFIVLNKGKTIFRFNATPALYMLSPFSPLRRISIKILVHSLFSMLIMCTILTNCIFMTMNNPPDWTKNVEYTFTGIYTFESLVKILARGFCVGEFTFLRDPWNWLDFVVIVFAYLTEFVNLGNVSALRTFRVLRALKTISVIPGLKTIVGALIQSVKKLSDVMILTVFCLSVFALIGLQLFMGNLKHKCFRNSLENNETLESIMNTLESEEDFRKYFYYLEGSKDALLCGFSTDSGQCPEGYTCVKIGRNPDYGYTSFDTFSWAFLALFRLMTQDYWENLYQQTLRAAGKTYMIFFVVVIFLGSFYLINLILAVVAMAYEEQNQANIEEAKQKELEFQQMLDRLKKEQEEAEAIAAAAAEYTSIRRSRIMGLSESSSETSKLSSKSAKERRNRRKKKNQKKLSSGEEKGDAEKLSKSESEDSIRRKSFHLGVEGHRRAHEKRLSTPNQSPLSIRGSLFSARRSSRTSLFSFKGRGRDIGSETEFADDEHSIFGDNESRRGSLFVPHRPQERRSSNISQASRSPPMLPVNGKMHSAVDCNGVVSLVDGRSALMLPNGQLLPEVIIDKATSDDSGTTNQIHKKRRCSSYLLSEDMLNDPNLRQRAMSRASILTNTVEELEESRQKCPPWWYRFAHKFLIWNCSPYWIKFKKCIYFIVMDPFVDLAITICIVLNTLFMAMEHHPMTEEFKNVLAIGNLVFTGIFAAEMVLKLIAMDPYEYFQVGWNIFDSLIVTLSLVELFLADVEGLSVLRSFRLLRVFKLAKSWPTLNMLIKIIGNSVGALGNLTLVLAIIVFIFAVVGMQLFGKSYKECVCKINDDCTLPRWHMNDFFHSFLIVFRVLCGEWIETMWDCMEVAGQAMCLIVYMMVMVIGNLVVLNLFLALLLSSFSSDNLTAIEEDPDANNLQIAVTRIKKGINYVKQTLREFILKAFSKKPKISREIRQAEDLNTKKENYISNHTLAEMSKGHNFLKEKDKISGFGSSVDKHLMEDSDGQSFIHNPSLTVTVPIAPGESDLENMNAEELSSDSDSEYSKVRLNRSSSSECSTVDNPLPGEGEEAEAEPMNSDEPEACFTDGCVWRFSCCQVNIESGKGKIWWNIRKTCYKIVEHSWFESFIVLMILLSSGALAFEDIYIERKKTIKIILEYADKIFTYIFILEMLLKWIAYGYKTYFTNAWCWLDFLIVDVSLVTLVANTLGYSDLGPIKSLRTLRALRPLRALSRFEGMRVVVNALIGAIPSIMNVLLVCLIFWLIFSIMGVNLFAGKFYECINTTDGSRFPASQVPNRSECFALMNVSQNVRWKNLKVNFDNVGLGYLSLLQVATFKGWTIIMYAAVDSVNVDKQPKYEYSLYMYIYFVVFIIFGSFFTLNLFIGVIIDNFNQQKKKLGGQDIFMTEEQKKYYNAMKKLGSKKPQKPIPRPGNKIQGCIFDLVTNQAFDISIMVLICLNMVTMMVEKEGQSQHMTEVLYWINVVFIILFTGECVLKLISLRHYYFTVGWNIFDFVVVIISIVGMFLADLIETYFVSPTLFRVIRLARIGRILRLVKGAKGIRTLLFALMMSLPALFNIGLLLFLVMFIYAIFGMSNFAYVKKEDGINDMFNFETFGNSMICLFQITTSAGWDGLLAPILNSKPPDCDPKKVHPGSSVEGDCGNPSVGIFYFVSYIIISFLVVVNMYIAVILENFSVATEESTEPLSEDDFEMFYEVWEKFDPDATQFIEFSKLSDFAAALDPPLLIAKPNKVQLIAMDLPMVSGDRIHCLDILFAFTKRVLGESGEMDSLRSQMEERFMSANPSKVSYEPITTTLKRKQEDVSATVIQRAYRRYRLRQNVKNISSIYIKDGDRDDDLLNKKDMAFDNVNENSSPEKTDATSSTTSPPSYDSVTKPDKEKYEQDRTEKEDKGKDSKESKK
Chain of hNav1.3 (Q9NY46 whole entry, looked up): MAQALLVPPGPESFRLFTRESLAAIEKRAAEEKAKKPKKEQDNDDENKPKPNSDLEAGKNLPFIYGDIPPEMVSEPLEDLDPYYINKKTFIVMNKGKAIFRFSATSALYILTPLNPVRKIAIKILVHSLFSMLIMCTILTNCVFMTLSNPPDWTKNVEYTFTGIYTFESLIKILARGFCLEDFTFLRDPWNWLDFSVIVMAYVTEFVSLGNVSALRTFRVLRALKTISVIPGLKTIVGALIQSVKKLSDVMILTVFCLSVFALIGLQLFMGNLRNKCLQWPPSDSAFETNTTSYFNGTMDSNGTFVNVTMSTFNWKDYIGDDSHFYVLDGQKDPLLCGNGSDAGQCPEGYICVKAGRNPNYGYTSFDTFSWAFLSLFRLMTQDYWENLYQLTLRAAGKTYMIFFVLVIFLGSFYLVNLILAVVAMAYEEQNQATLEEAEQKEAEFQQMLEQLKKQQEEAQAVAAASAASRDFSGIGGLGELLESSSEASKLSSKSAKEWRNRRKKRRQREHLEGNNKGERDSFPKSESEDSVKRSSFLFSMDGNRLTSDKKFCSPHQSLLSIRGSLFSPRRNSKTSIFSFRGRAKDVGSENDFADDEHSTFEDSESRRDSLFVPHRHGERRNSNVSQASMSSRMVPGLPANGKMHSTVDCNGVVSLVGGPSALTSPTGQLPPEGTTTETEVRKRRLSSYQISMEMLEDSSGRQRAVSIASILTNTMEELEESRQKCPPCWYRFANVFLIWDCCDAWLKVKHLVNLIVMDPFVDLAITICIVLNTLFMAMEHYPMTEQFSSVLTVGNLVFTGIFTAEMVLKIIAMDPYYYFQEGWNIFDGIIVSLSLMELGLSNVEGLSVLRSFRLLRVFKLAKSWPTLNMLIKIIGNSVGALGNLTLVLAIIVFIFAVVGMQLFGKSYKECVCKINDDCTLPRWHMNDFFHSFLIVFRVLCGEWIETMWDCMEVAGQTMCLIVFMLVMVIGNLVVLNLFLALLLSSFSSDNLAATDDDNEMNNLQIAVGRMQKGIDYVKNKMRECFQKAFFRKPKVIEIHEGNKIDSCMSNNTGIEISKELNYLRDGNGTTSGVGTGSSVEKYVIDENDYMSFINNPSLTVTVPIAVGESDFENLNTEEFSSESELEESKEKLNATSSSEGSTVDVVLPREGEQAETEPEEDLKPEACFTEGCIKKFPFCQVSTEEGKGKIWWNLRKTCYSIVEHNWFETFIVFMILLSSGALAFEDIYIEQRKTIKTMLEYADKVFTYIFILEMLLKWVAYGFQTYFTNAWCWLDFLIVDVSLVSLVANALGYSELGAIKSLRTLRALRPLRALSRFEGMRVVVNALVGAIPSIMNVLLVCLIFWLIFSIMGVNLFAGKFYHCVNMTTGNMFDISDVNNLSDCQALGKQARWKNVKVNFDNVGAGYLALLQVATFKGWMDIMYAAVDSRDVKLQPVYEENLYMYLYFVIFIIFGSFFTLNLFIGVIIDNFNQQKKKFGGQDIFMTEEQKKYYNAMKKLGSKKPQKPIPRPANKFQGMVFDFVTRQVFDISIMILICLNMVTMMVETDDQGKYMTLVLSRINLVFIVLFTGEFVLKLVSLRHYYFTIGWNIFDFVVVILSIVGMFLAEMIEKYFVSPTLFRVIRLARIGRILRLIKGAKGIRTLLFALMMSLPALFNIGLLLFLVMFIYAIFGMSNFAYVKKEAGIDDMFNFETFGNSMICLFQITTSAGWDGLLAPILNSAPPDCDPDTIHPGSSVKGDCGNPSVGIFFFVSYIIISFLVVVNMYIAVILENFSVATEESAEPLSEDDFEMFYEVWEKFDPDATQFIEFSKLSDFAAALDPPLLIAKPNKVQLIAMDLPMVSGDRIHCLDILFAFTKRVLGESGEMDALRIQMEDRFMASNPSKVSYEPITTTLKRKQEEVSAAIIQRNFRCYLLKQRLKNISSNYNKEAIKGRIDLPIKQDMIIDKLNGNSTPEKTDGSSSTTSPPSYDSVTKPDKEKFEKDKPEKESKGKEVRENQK

With `CC[C@H](C)[C@@H]1NC(=O)[C@@H]2CSSC[C@@H]3NC(=O)[C@H](C(C)C)NC(=O)[C@H](CC(C)C)NC(=O)[C@H](CC(N)=O)NC(=O)[C@@H]4CCCN4C(=O)[C@H](CCCNC(=N)N)NC(=O)[C@H](CSSC[C@H](NC(=O)[C@@H](N)CC(=O)O)C(=O)N[C@@H](CC(C)C)C(=O)NCC(=O)N[C@@H](Cc4ccccc4)C(=O)N[C@@H](CCSC)C(=O)N[C@@H](CCCNC(=N)N)C(=O)N[C@@H](CCCCN)C(=O)N2)NC(=O)[C@H](CSSC[C@@H](C(=O)N[C@@H](CCCCN)C(=O)N[C@@H](Cc2ccc(O)cc2)C(=O)N[C@H](C(=O)N[C@@H](Cc2ccccc2)C(N)=O)C(C)C)NC(=O)[C@H](Cc2c[nH]c4ccccc24)NC(=O)[C@H](CCC(N)=O)NC(=O)[C@H](Cc2cnc[nH]2)NC(=O)[C@H]([C@@H](C)O)NC(=O)[C@H](CCCNC(=N)N)NC(=O)[C@H](CO)NC3=O)NC(=O)[C@H](CCCCN)NC(=O)[C@H](CC(=O)O)NC(=O)[C@H](CC(N)=O)NC(=O)[C@H](CC(=O)O)NC(=O)[C@@H]2CCCN2C1=O` [SEQ ID NO: 763, [Gln28]GpTx-1] (H-DCLGFMRKCIPDNDKCCRPNLVCSRTHQWCKYVF-NH2; disulfide 2-17, 9-23, 16-30) the IC50 (hNav1.7) was 190 nM and the IC50 (hNav1.3; use-dependent block, hNav1.3) was 270 nM.
For `CC[C@H](C)[C@@H]1NC(=O)[C@@H]2CSSC[C@@H]3NC(=O)[C@H](C(C)C)NC(=O)[C@H](CC(C)C)NC(=O)[C@H](CC(N)=O)NC(=O)[C@@H]4CCCN4C(=O)[C@H](CCCNC(=N)N)NC(=O)[C@H](CSSC[C@H](NC(=O)[C@@H](N)CC(=O)O)C(=O)N[C@@H](CC(C)C)C(=O)NCC(=O)N[C@@H](Cc4ccccc4)C(=O)N[C@@H](CCSC)C(=O)N[C@@H](CCCNC(=N)N)C(=O)N[C@@H](CCCCN)C(=O)N2)NC(=O)[C@H](CSSC[C@@H](C(=O)N[C@@H](CCCCN)C(=O)N[C@@H](Cc2ccc(O)cc2)C(=O)N[C@H](C(=O)N[C@@H](Cc2ccccc2)C(N)=O)C(C)C)NC(=O)[C@H](CCCCN)NC(=O)[C@H](CCCCN)NC(=O)[C@H](Cc2c[nH]cn2)NC(=O)[C@H]([C@@H](C)O)NC(=O)[C@H](CCCNC(=N)N)NC(=O)[C@H](CO)NC3=O)NC(=O)[C@H](CCCCN)NC(=O)[C@H](CC(=O)O)NC(=O)[C@H](CC(N)=O)NC(=O)[C@H](CC(=O)O)NC(=O)[C@@H]2CCCN2C1=O` [compound 56] (H-DCLGFMRKCIPDNDKCCRPNLVCSRTHKKCKYVF-NH2; disulfide 2-17, 9-23, 16-30), the Nav1.4/Nav1.7 (hNav1.7) was 1.4, the Nav1.7/Nav1.3 (hNav1.7) was 0.8 and the Nav1.4/Nav1.3 (hNav1.3) was 1.1.
For `CC[C@H](C)[C@@H]1NC(=O)[C@@H]2CSSC[C@@H]3NC(=O)[C@H](C(C)C)NC(=O)[C@H](CC(C)C)NC(=O)[C@H](CC(N)=O)NC(=O)[C@@H]4CCCN4C(=O)[C@H](CCCNC(=N)N)NC(=O)[C@H](CSSC[C@H](NC(=O)[C@@H](N)CC(=O)O)C(=O)N[C@@H](CC(C)C)C(=O)NCC(=O)N[C@@H](Cc4ccccc4)C(=O)N[C@@H](CCSC)C(=O)N[C@@H](CCCNC(=N)N)C(=O)N[C@@H](CCCCN)C(=O)N2)NC(=O)[C@H](CSSC[C@@H](C(=O)N[C@@H](CCCCN)C(=O)N[C@@H](CCC(=O)O)C(=O)N[C@H](C(=O)N[C@@H](Cc2ccccc2)C(N)=O)C(C)C)NC(=O)[C@H](Cc2c[nH]c4ccccc24)NC(=O)[C@H](CCCCN)NC(=O)[C@H](Cc2cnc[nH]2)NC(=O)[C@H]([C@@H](C)O)NC(=O)[C@H](CCCNC(=N)N)NC(=O)[C@H](CO)NC3=O)NC(=O)[C@H](CCCCN)NC(=O)[C@H](CC(=O)O)NC(=O)[C@H](CC(N)=O)NC(=O)[C@H](CC(=O)O)NC(=O)[C@@H]2CCCN2C1=O` [compound 32] (H-DCLGFMRKCIPDNDKCCRPNLVCSRTHKWCKEVF-NH2; disulfide 2-17, 9-23, 16-30), the IC50 (hNav1.7; Table 25, IonWorks Quattro, use, […], read-out: IWQ Use Nav1.7) was 13900 nM and the IC50 (hNav1.3; Table 25, use, […]) was 9140 nM.
Compound `CSCC[C@@H]1NC(=O)[C@H](Cc2ccccc2)NC(=O)CNC(=O)[C@H](CC(C)C)NC(=O)[C@@H](NC(=O)[C@@H](N)CC(=O)O)CSSC[C@@H]2NC(=O)[C@@H]3CSSC[C@@H](C(=O)N[C@@H](CCCCN)C(=O)N[C@@H](Cc4ccc(O)cc4)C(=O)N[C@H](C(=O)N[C@@H](Cc4ccccc4)C(N)=O)C(C)C)NC(=O)[C@H](Cc4c[nH]c5ccccc45)NC(=O)[C@H](CCCCN)NC(=O)[C@H](Cc4c[nH]cn4)NC(=O)[C@H]([C@@H](C)O)NC(=O)[C@H](CCCNC(=N)N)NC(=O)[C@H](CO)NC(=O)[C@H](CSSC[C@H](NC(=O)[C@H](CCCCN)NC(=O)[C@H](CCCNC(=N)N)NC1=O)C(=O)N[C@@H](Cc1c[nH]cn1)C(=O)N1CCC[C@H]1C(=O)N[C@@H](CC(=O)O)C(=O)N[C@@H](CC(N)=O)C(=O)N[C@@H](CC(=O)O)C(=O)N[C@@H](CCCCN)C(=O)N3)NC(=O)[C@H](C(C)C)NC(=O)[C@H](CC(C)C)NC(=O)[C@H](CC(N)=O)NC(=O)[C@@H]1CCCN1C(=O)[C@H](CCCNC(=N)N)NC2=O` [compound 304] (H-DCLGFMRKCHPDNDKCCRPNLVCSRTHKWCKYVF-NH2; disulfide 2-17, 9-23, 16-30) has an IC50 (hNav1.7; [1]) of 50 nM.
With `CC[C@H](C)[C@@H]1NC(=O)[C@@H]2CSSC[C@@H]3NC(=O)[C@H](C(C)C)NC(=O)[C@H](CC(C)C)NC(=O)[C@H](CC(N)=O)NC(=O)[C@@H]4CCCN4C(=O)[C@H](CCCCN(C)C)NC(=O)[C@H](CSSC[C@H](NC(=O)[C@@H](N)CC(=O)O)C(=O)N[C@@H](CC(C)C)C(=O)NCC(=O)N[C@@H](Cc4ccccc4)C(=O)N[C@@H](CCSC)C(=O)N[C@@H](CCCNC(=N)N)C(=O)N[C@@H](CCCCN)C(=O)N2)NC(=O)[C@H](CSSC[C@@H](C(=O)N[C@@H](CCCCN)C(=O)N[C@@H](Cc2ccc(O)cc2)C(=O)N[C@H](C(=O)N[C@@H](Cc2ccccc2)C(N)=O)C(C)C)NC(=O)[C@H](Cc2c[nH]c4ccccc24)NC(=O)[C@H](CCCCN)NC(=O)[C@H](Cc2c[nH]cn2)NC(=O)[C@H]([C@@H](C)O)NC(=O)[C@H](CCCNC(=N)N)NC(=O)[C@H](CO)NC3=O)NC(=O)[C@H](CCCCN)NC(=O)[C@H](CC(=O)O)NC(=O)[C@H](CC(N)=O)NC(=O)[C@H](CC(=O)O)NC(=O)[C@@H]2CCCN2C1=O` [compound 314] (H-DCLGFMRKCIPDNDKCC[Lys(Me2)]PNLVCSRTHKWCKYVF-NH2; disulfide 2-17, 9-23, 16-30) the IC50 (hNav1.7; [1]) was 210 nM.
In the case of `CC[C@H](C)[C@@H]1NC(=O)[C@@H]2CSSC[C@@H]3NC(=O)[C@H](C(C)C)NC(=O)[C@H](CC(C)C)NC(=O)[C@H](CC(N)=O)NC(=O)[C@@H]4CCCN4C(=O)[C@H](CCCNC(=N)N)NC(=O)[C@H](CSSC[C@H](NC(=O)[C@@H](N)CC(=O)O)C(=O)N[C@@H](CC(C)C)C(=O)N[C@@H](Cc4c[nH]c5ccccc45)C(=O)N[C@@H](Cc4ccccc4)C(=O)N[C@@H](CCSC)C(=O)N[C@@H](CCCNC(=N)N)C(=O)N[C@@H](CCCCN)C(=O)N2)NC(=O)[C@H](CSSC[C@@H](C(=O)N[C@@H](CCCCN)C(=O)N[C@@H](Cc2ccc(O)cc2)C(=O)N[C@H](C(=O)N[C@@H](Cc2ccccc2)C(N)=O)C(C)C)NC(=O)[C@H](Cc2c[nH]c4ccccc24)NC(=O)[C@H](CCCCN)NC(=O)[C@H](Cc2c[nH]cn2)NC(=O)[C@H]([C@@H](C)O)NC(=O)[C@H](CCCNC(=N)N)NC(=O)[C@H](CO)NC3=O)NC(=O)[C@H](CCCCN)NC(=O)[C@H](CC(=O)O)NC(=O)[C@H](CC(N)=O)NC(=O)[C@H](CC(=O)O)NC(=O)[C@@H]2CCCN2C1=O` [SEQ ID NO: 169] (H-DCLWFMRKCIPDNDKCCRPNLVCSRTHKWCKYVF-NH2; disulfide 2-17, 9-23, 16-30), the IC50 (hNav1.7; read-out: IWQ Use Nav1.7) is reported as 50 nM.
For `CC[C@H](C)[C@@H]1NC(=O)[C@@H]2CSSC[C@@H]3NC(=O)[C@H](C(C)C)NC(=O)[C@H](CC(C)C)NC(=O)[C@H](CC(N)=O)NC(=O)[C@H](CCCCN)NC(=O)[C@H](CCCNC(=N)N)NC(=O)[C@H](CSSC[C@H](NC(=O)[C@@H](N)CC(=O)O)C(=O)N[C@@H](CC(C)C)C(=O)NCC(=O)N[C@@H](Cc4ccccc4)C(=O)N[C@@H](CCSC)C(=O)N[C@@H](CCCNC(=N)N)C(=O)N[C@@H](CCCCN)C(=O)N2)NC(=O)[C@H](CSSC[C@@H](C(=O)N[C@@H](CCCCN)C(=O)N[C@@H](Cc2ccc(O)cc2)C(=O)N[C@H](C(=O)N[C@@H](Cc2ccccc2)C(N)=O)C(C)C)NC(=O)[C@H](Cc2c[nH]c4ccccc24)NC(=O)[C@H](CCCCN)NC(=O)[C@H](Cc2c[nH]cn2)NC(=O)[C@H]([C@@H](C)O)NC(=O)[C@H](CCCNC(=N)N)NC(=O)[C@H](CO)NC3=O)NC(=O)[C@H](CCCCN)NC(=O)[C@H](CC(=O)O)NC(=O)[C@H](CC(N)=O)NC(=O)[C@H](CC(=O)O)NC(=O)[C@@H]2CCCN2C1=O` [compound 50] (H-DCLGFMRKCIPDNDKCCRKNLVCSRTHKWCKYVF-NH2; disulfide 2-17, 9-23, 16-30), the IC50 (hNav1.7; read-out: IWQ Use Nav1.7) was 120 nM.
With `CC[C@H](C)[C@@H]1NC(=O)[C@@H]2CSSC[C@@H]3NC(=O)[C@H](C(C)C)NC(=O)[C@H](CC(C)C)NC(=O)[C@H](CC(N)=O)NC(=O)[C@@H]4CCCN4C(=O)[C@H](CCCNC(=N)N)NC(=O)[C@H](CSSC[C@H](NC(=O)[C@@H](N)CC(=O)O)C(=O)N[C@@H](CC(C)C)C(=O)NCC(=O)N[C@@H](Cc4ccccc4)C(=O)N[C@@H](CCSC)C(=O)N[C@@H](CCCNC(=N)N)C(=O)N[C@@H](CCCCN)C(=O)N2)NC(=O)[C@H](CSSC[C@@H](C(=O)N[C@@H](CCCCN)C(=O)N[C@@H](Cc2ccc(O)cc2)C(=O)N[C@@H](CCC(=O)O)C(=O)N[C@@H](Cc2ccccc2)C(N)=O)NC(=O)[C@H](Cc2c[nH]c4ccccc24)NC(=O)[C@H](CCCCN)NC(=O)[C@H](Cc2c[nH]cn2)NC(=O)[C@H]([C@@H](C)O)NC(=O)[C@H](CCCNC(=N)N)NC(=O)[C@H](CO)NC3=O)NC(=O)[C@H](CCCCN)NC(=O)[C@H](CC(=O)O)NC(=O)[C@H](CC(N)=O)NC(=O)[C@H](CC(=O)O)NC(=O)[C@@H]2CCCN2C1=O` [SEQ ID NO: 33, [Glu33]GpTx-1] (H-DCLGFMRKCIPDNDKCCRPNLVCSRTHKWCKYEF-NH2; disulfide 2-17, 9-23, 16-30) the IC50 (hNav1.7; read-out: IWQ Use Nav1.7) was 560 nM.
